# Assay results taken from patent publication US20110076258A1, “METHODS OF MODULATING T CELL- DEPENDENT IMMUNE RESPONSES” (Converge Biotech Inc., priority 2008, published 2011).
# Key:
# naive CD4 T cells = assay: T cell proliferation by CFSE dilution, plate-bound CD3 and CD28 mAbs; format: cell-based, mouse
# cd3ε^−/− mice [1] = assay: Treg cell generation in murine model of inflammatory bowel disease; format: in vivo, mouse; conditions: 3 mM oATP in 100 μl i.v., with transfer or 16 hours after; day 28
# Source text: FIG. 14: Experimental protocol for Treg generation in a mouse model of inflammatory bowel disease. • CD3ε^−/− mice were adoptively transferred with 2×10^5 naïve CD4^+ T cells; 2×10^5 naïve CD4^+ T cells with oATP; 2×10^5 naïve CD4^+ T cells with administration of oATP sixteen hours after the transfer; or 2×10^5 naïve CD4^+ T cells with 10^5 natural Treg cells. oATP-treated animals received daily intravenous oATP administration on days 2-5, no oATP administration on days 6 and 7, and daily intravenous oATP administration on days 8-12. Mice were analyzed for CD4^+ subpopulations on day 28 (See Example 12).
# FIG. 15: Treg cell generation with oATP treatment in a mouse model of inflammatory bowel disease. • a) Colons, spleens and mesenteric lymph nodes of test animals were assessed for inflammation fourteen days after the last injection of oATP (see Example 12). • b) FACS analysis identifying the percentage of CD4^+CD25^highFoxp3 regulatory T cells. • c) FACS analysis identifying effector memory T cells as CD4^+CD44^+CD62L^− or CD4^+CD25^+CD69^+. The ratio of Treg cells to effector memory T cells is shown. […]
# Four experimental groups of CD3ε^−/− mice were tested for Treg generation (FIG. 14). […] Mice were analyzed on day 28.
# The colons of the animals were assessed for inflammation 14 days after the last injection of oATP (FIG. 15A). […]
# cd3ε^−/− mice [2] = assay: Inflammatory bowel disease induced by naïve CD4^+ T cells; format: in vivo, mouse
# Source text: FIG. 8: Amelioration of inflammatory bowel disease by oATP treatment. • a) Photographs of representative mesenteric lymph nodes, spleens and colons from cd3ε^−/− mice adoptively transferred with CD4^+/CD25^+ and CD4^+ cells (see Example 5). […] Bar=1 cm • b) Histograms representing inflammation scores in animals treated as indicated (see methods section) (mean±SD; n=5, CD4^+/25^+ healthy control group; n=7, CD4^+ untreated group; n=8, CD4^+ oATP-treated group). • c) Hematoxilin/eosin (upper panels) and Alcian/PAS (lower panels) staining of colon sections from the indicated animals (all the microscopic pictures in the box were taken at the same magnification; scale bar=50 μm). […] Partial goblet cell depletion and reduction in size of Alcian-PAS-positive droplets are also noticeable (arrowheads); in mice reconstituted with CD4 cells and treated with PBS, the lamina propria is markedly expanded by inflammatory cell infiltrate with focal findings of crypt abscessation (arrow). Colonic crypts are also severely dysplastic with almost complete loss of goblet cells. • d) Cell recoveries from mesenteric lymph nodes and spleen of the indicated animals.
# e) Absolute numbers of IL-2-, TNFα-, IFNγ- and IL-17-producing CD4^+ T cells in mesenteric lymph nodes from the indicated mice (mean±SD; n=5, CD4^+/25^+ healthy group; n=7, CD4^+ untreated group; n=8, CD4^+ oATP-treated group). *, P<0.05, **, P<0.001, ***, P<0.0001 • f) Absolute numbers of CD44^+CD62L^− effector/memory and CD69^+ CD4 cells recovered from mesenteric lymph nodes and spleen of the indicated group of animals (bars represent mean values).
# To test oATP in a non-transgenic model of T cell-mediated inflammation, we induced inflammatory bowel disease (IBD) in T lymphopenic cd3ε^−/− mice by injecting naïve CD4^+ T cells. As a healthy control we used cd3ε^−/− mice injected with naïve CD4^+ T cells together with CD4^+CD25^+ cells comprising regulatory T cells (Treg). […] Starting at day 15 after cell transfer, the IBD group was daily injected intravenously either with PBS or oATP.
# MAPK = assay: Protracted MAPK (p38, Erk) activation after 16 h CD3 stimulation; format: cell-based, mouse; conditions: crt^−/− T cells, CD3 antibodies 16 h
# [3] = test system: INS-HA transgenic RAG-2^−/− mice; assay: Diabetes by adoptive transfer of TCR-HA CD4 cells; format: in vivo, mouse
smiles,measurement,setting,value
Nc1ncnc2c1ncn2[C@@H](C=O)O[C@@H](C=O)COP(=O)(O)OP(=O)(O)OP(=O)(O)O [oATP],T cell proliferation (CFSE dilution),naive CD4 T cells,almost completely inhibited
same,Treg generation from naïve T cells,cd3ε^−/− mice [1],most effective when oATP is present during the first activation of the naïve T cells
same,"macroscopic intestine phenotype (thickening of the bowel wall, unformed or absent stool)","cd3ε^−/− mice [2]; 5 weeks after reconstitution, daily i.v. from day 15",significantly ameliorated
same,"number of proinflammatory cytokine (IL-2, IFN-γ and TNF-α)-secreting cells",cd3ε^−/− mice [2]; mesenteric lymph nodes,significantly reduced
same,"cellularity, CD4^+ effector/memory subset (CD44^+62L^−) and CD69^+ cells in mesenteric lymph nodes and spleen","cd3ε^−/− mice [2]; mouse, in vivo",undistinguishable from healthy controls
same,"colon histology (hematoxilin/eosin, Alcian/PAS)","cd3ε^−/− mice [2]; mouse, in vivo",lamina propria is focally expanded by inflammatory cells infiltrate
same,inflammation score versus animals injected with CD4^+ and Treg cells,"cd3ε^−/− mice [2]; mouse, in vivo",not significantly different
same,number of IL-17 secreting cells,"cd3ε^−/− mice [2]; mouse, in vivo",analogous to the number in control mice
same,spleen and mesenteric lymph nodes size,"cd3ε^−/− mice [2]; mouse, in vivo",normal in size
same,prolonged activation of MAPK (p38 MAPK and Erk),MAPK,almost completely abolished
same,Blood glucose,"[3]; day 12, twice daily i.v. and i.p. day 1 to 10",normal
same,CD69^+ cells in the pancreas,"[3]; mouse, in vivo",undetectable
same,TCR-HA^+ cells in the pancreas,"[3]; mouse, in vivo",barely detectable
same,TCR-HA^+ cells in the spleen,"[3]; mouse, in vivo",significantly reduced
same,pathological findings in the pancreas,"[3]; mouse, in vivo",no relevant pathological findings
same,"IL-6, IFN-γ and TNF-α on a per-cell basis, ex vivo splenocytes pulsed with HA 110-120 peptide",[3]; versus PBS-treated control group,significant reduction
